Results as given in US20230271949A1, “GLP-1R MODULATING COMPOUNDS” (ASCLETIS BIOSCIENCE CO., LTD., priority 2022, published 2023).

What follows are compounds tested against GLP-1R (Homo sapiens, UniProt P43220) (assay: GLP-1R agonist cAMP stimulation assay (HTRF cAMP)). Conditions: HEK293 cell line expressing GLP-1 target; HTRF cAMP agonist mode, 30 min at RT.
Type: cell-based
In short: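 GLP-1R-expressing cells were stimulated with 10-point, 3-fold compound dilutions for 30 min at RT; HTRF cAMP detection reagents were then added for 60 min and the 665/615 ratio read. Ratios were converted to cAMP via a standard curve and % activity scaled between DMSO and top-concentration GLP-1(7-37) reference wells.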

Sequence of GLP-1R (P43220 24-463): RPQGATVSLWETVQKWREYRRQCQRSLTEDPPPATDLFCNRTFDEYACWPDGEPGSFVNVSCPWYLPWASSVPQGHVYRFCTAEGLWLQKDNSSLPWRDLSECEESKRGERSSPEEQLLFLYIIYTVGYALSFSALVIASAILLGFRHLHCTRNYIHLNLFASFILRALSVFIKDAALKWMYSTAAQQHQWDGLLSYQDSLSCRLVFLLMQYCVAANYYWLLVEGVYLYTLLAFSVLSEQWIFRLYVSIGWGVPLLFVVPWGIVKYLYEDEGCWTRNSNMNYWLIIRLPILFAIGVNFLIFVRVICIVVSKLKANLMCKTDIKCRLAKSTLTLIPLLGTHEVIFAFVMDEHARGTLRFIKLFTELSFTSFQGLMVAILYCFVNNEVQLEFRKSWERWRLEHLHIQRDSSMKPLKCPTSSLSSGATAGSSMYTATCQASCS

Row | Structure (SMILES) | EC50 [nM]
1 | CCn1cncc1Cn1c(CN2CC=C(c3cccc4c3OC(C)(c3ccc(Cl)cn3)O4)CC2)nc2cc(NC(=O)c3cc(F)c4[nH]nc(C)c4c3)ccc21 (centres unmarked) [Compound 410] | 0.31
2 | O=C(NCC(=O)N1C2CCC(C2)[C@H]1C(=O)O)c1ccc2c(c1)nc(CN1CCC(c3cccc(OCc4ccc(Cl)cc4F)n3)CC1)n2C[C@@H]1CCO1 (some centres unmarked) [Compound 59] | 7.2
3 | O=C(Nc1cc(F)c2[nH]ncc2c1)c1ccc2c(c1)nc(CN1CC=C(c3cccc(OCc4ccc(Cl)cc4F)n3)CC1)n2C[C@@H]1CCO1 [Compound 152] | 0.64
4 | Cc1n[nH]c2cnc(NC(=O)c3ccc4c(c3)nc(CN3CC=C(c5cccc(OCc6ccc(Cl)cc6F)n5)CC3)n4C[C@@H]3CCO3)nc12 [Compound 168] | 10.5
5 | Cc1cc(NC(=O)c2ccc3c(n2)nc(CN2CC=C(c4cccc(OCc5ccc(Cl)cc5F)n4)CC2)n3C[C@@H]2CCO2)cc2cn[nH]c12 [Compound 137] | 5.49
6 | CCc1n[nH]c2ccc(C(=O)Nc3ccc4c(c3)nc(C3CC35CCN(c3cccc(OCc6ccc(Cl)cc6F)n3)CC5)n4CC3CCO3)cc12 (centres unmarked) [Compound 250] | 1.49
7 | Cc1n[nH]c2c(C(F)F)cc(NC(=O)c3ccc4c(c3)nc(CN3CC=C(c5cccc(OCc6ccc(Cl)cc6F)n5)CC3)n4C[C@@H]3CCO3)cc12 [Compound 172] | 1.63
8 | O=C(Nc1ccc2nc(CN3CC=C(c4cccc(OCc5ccc(Cl)cc5F)n4)CC3)n(CC3CCO3)c2c1)c1ccc2[nH]nc(F)c2c1 (centres unmarked) [Compound 280] | 21
9 | O=C(Nc1ncc2[nH]cnc2n1)c1ccc2c(c1)nc(CN1CC=C(c3cccc(OCc4ccc(Cl)cc4F)n3)CC1)n2C[C@@H]1CCO1 [Compound 144] | 23.4
10 | Cc1cc(NC(=O)c2ccc3c(c2)nc(CN2CC=C(c4cccc(OCc5ccc(Cl)cc5F)n4)CC2)n3C[C@@H]2CCO2)cc2nn[nH]c12 [Compound 167] | 0.68
11 | Nc1ncc2c(ncn2C(=O)c2ccc3c(c2)nc(CN2CCC(c4cccc(OCc5ccc(Cl)cc5F)n4)CC2)n3C[C@@H]2CCO2)n1 [Compound 78] | 23.1
12 | N#Cc1ccc(COc2cccc(C3=CCN(Cc4nc5cc(NC(=O)c6ccc7c(c6)C6(CC6)C(=O)N7)ccc5n4C[C@@H]4CCO4)CC3)n2)c(F)c1 [Compound 230] | 0.09
13 | O=C(NCC(=O)N1C[C@@H](O)[C@@H](O)C1)c1ccc2c(c1)nc(CN1CCC(c3cccc(OCc4ccc(Cl)cc4F)n3)CC1)n2C[C@@H]1CCO1 [Compound 67] | 5.89
14 | Cc1n[nH]c2c(C3CC3)cc(NC(=O)c3ccc4c(c3)nc(CN3CC=C(c5cccc(OCc6ccc(Cl)cc6F)n5)CC3)n4C[C@@H]3CCO3)cc12 [Compound 171] | 9.53
15 | Cc1n[nH]c2c(C(F)(F)F)cc(C(=O)Nc3ccc4c(c3)nc(C3CC35CCN(c3cccc(OCc6ccc(Cl)cc6F)n3)CC5)n4C[C@@H]3CCO3)cc12 (some centres unmarked) [Compound 253] | 2.01
16 | COCCn1c(Cc2ccc(-c3cccc(OCc4ccc(C#N)cc4F)n3)cc2-c2nccn2C)nc2cc(C(=O)NCCc3ccc(S(N)(=O)=O)cc3)ccc21 [Compound 29] | > 10000

Row | Structure (SMILES) | EC50 [nM]
17 | Cc1n[nH]c2c(Cl)cc(NC(=O)c3ccc4c(c3)nc(CN3CCC(c5cccc(OCc6ccc(Cl)cc6F)n5)CC3)n4C[C@@H]3CCO3)cc12 [Compound 110] | 4.45
18 | Cc1n[nH]c2cnc(NC(=O)c3ccc4c(c3)nc(CN3CC=C(c5cccc(OCc6ccc(Cl)cc6F)n5)CC3)n4C[C@@H]3CCO3)cc12 [Compound 192] | 9.87
19 | N#Cc1n[nH]c2ccc(NC(=O)c3ccc4c(c3)nc(CN3CCC(c5cccc(OCc6ccc(Cl)cc6F)n5)CC3)n4C[C@@H]3CCO3)cc12 [Compound 82] | 116
20 | Cc1n[nH]c2ncc(NC(=O)c3ccc4c(c3)nc(CN3CCC(c5cccc(OCc6ccc(Cl)cc6F)n5)CC3)n4C[C@@H]3CCO3)cc12 [Compound 79] | 76.5
21 | Cc1cc(NC(=O)c2ccc3c(c2)nc(CN2CC=C(c4cccc5c4OC(C)(c4ccc(Cl)cc4F)O5)CC2)n3CC2CCO2)cc2c(C(F)(F)F)n[nH]c12 (centres unmarked) [Compound 296] | 1.92
22 | Cc1n[nH]c2c(C)cc(C(=O)Nc3ccc4c(c3)nc(Cc3ccc(-c5cccc6c5OC(C)(c5ccc(C#N)cc5F)O6)cc3F)n4CC3CCO3)cc12 (centres unmarked) [Compound 317] | 0.32
23 | COCCn1c(CN2CCC(c3cccc(OCc4ccc(Cl)cc4F)n3)CC2)nc2cc(C(=O)NCCCc3ccc(OC)cc3)ccc21 [Compound 20] | 3240
24 | COCCn1c(CN2CCC(c3cccc(OCc4ccc(Cl)cc4F)n3)CC2)nc2cc(C(=O)NCc3ccc(O)c(C(=O)O)c3)ccc21 [Compound 37] | 106
25 | Cc1n[nH]c2ncc(NC(=O)c3ccc4c(c3)nc(CN3CC=C(c5cccc(OCc6ccc(Cl)cc6F)n5)CC3)n4C[C@@H]3CCO3)cc12 [Compound 189] | 3.54
26 | Cc1n[nH]c2ccc(NC(=O)c3ccc4c(c3)nc(CN3CC=C(c5cccc(OCc6ccc(Cl)cc6F)n5)CC3)n4C[C@@H]3CCO3)c(F)c12 [Compound 176] | 0.87
27 | O=C(Nc1ccc2c(c1)nc(C1CC13CCN(c1cccc(OCc4ccc(Cl)cc4F)n1)CC3)n2C[C@@H]1CCO1)c1cc(F)c2c(c1)C1(CC1)C(=O)N2 (some centres unmarked) [Compound 254] | 1.92
28 | Cc1cc(NC(=O)c2ccc3c(c2)nc(CN2CCC(c4cccc(OCc5ccc(Cl)cc5F)n4)CC2)n3C[C@@H]2CCO2)c(F)c2c(C)n[nH]c12 [Compound 121] | 4.23
29 | COCCn1c(CN2CCC(c3cccc(OCc4ccc(Cl)cc4F)n3)CC2)nc2cc(C(=O)NCCc3nc4ccccc4[nH]3)ccc21 [Compound 22] | 1370
30 | COCCn1c(CN2CCC(c3cccc(OCc4ccc(Cl)cc4F)n3)CC2)nc2cc(C(=O)NCc3ccc4[nH]ccc4c3)ccc21 [Compound 21] | 160
31 | O=C(Nc1ccc2[nH]nnc2c1)c1ccc2c(c1)nc(CN1CCC(c3cccc(OCc4ccc(Cl)cc4F)n3)CC1)n2C[C@@H]1CCO1 [Compound 193] | 0.21
32 | Fc1cc(Cl)ccc1COc1cccc(C2=CCN(Cc3nc4cc(-c5nc(-c6cc(C(F)(F)F)[nH]n6)co5)ccc4n3C[C@@H]3CCO3)CC2)n1 [Compound 398] | 110

Further compounds by falling EC50, results first:

Row | EC50 [nM] | Structure (SMILES)
33 | 286 | CNS(=O)(=O)Cc1ccc2[nH]cc(CCNC(=O)c3ccc4c(c3)nc(CN3CCC(c5cccc(OCc6ccc(Cl)cc6F)n5)CC3)n4CCOC)c2c1 [Compound 39]
34 | 99.2 | Cc1n[nH]c2c(F)cc(NC(=O)c3cc4c(nc(CN5CC=C(c6cccc(OCc7ccc(Cl)cn7)n6)CC5)n4C[C@@H]4CCO4)s3)cc12 [Compound 406]
35 | 90.1 | COCCn1c(CN2CCC(c3cccc(OCc4ccc(Cl)cc4F)n3)CC2)nc2cc(C(=O)NCc3ccc(O)nc3)ccc21 [Compound 34]
36 | 75.7 | COCCn1c(CN2CCC(c3cccc(OCc4ccc(Cl)cc4F)n3)CC2)nc2cc(C(=O)NCc3ccc(O)c(OC)c3)ccc21 [Compound 28]
37 | 42.4 | Cn1cc2cc(NC(=O)c3ccc4c(c3)nc(CN3CCC(c5cccc(OCc6ccc(Cl)cc6F)n5)CC3)n4C[C@@H]3CCO3)ccc2n1 [Compound 99]
38 | 1.66 | Cc1n[nH]c2c(Cl)cc(NC(=O)c3ccc4c(c3)nc(CN3CC=C(c5cccc6c5O[C@@](C)(c5ccc(Cl)cc5F)O6)C[C@@H]3C)n4CC3CCO3)cc12 (some centres unmarked) [Compound 329]
39 | 1.26 | N#Cc1ccc(COc2cccc(C3=CCN(Cc4nc5cc(NC(=O)c6ccc7[nH]nc(C(F)(F)F)c7c6)ccc5n4C[C@@H]4CCO4)CC3)n2)c(F)c1 [Compound 232]
40 | 1.21 | Cc1cc(NC(=O)c2ccc3c(c2)nc(CN2CCC(c4cccc(OCc5ccc(Cl)cn5)n4)CC2)n3C[C@@H]2CCO2)cc2c1NC(=O)C21CC1 [Compound 131]
41 | 1.02 | Cc1n[nH]c2c(Cl)cc(C(=O)Nc3ccc4c(c3)nc(CN3CCC(c5cccc6c5OC(C)(c5ccc(Cl)cc5F)O6)CC3)n4CC3CCO3)cc12 (centres unmarked) [Compound 344]
42 | 0.98 | Cc1n[nH]c2c(C)cc(NC(=O)c3ccc4c(c3)nc(CN3CCC(c5cccc(OCc6cc(F)c(C#N)s6)n5)CC3)n4C[C@@H]3CCO3)cc12 [Compound 376]
43 | 0.98 | Cc1cc2c(C#N)ccc(COc3cccc(C4=CCN(Cc5nc6cc(NC(=O)c7ccc8[nH]nc(C)c8c7)ccc6n5C[C@@H]5CCO5)CC4)n3)c2o1 [Compound 358]
44 | 0.97 | N#Cc1ccc(COc2cccc(C3CCN(Cc4nc5cc(C(=O)NCC(=O)N6C[C@@H](O)C[C@H]6C(=O)O)ccc5n4C[C@@H]4CCO4)CC3)n2)c(F)c1 [Compound 56]
45 | 0.87 | O=C(Nc1ccc2[nH]nc(C(F)F)c2c1)c1ccc2c(c1)nc(CN1CCC(c3cccc(OCc4ccc(Cl)cc4F)n3)CC1)n2C[C@@H]1CCO1 [Compound 115]
46 | 0.85 | Cc1n[nH]c2c(F)cc(C(=O)Nc3ccc4c(c3)nc(CN3CC=C(c5cccc(OCc6cc(F)c(C#N)s6)n5)CC3)n4C[C@@H]3CCO3)cc12 [Compound 362]
47 | 0.81 | Cc1n[nH]c2ccc(C(=O)Nc3ccc4c(c3)nc(CN3CCC(c5cccc(OCc6ccc(Cl)cc6F)n5)CC3)n4CCOC(F)(F)F)cc12 [Compound 261]
48 | 0.78 | Cc1n[nH]c2c(C(F)(F)F)cc(C(=O)Nc3ccc4c(c3)nc(CN3CC=C(c5cccc(OCc6ccc(Cl)cn6)n5)CC3)n4C[C@@H]3CCO3)cc12 [Compound 213]
49 | 0.74 | Cc1cc(NC(=O)c2ccc3c(c2)nc(CN2CCC(c4cccc(OCc5ccc(C#N)cc5F)n4)CC2)n3C[C@@H]2CCO2)cc2c(C(F)F)n[nH]c12 [Compound 132]
50 | 0.49 | COC(=O)[C@@H]1C[C@H](O)CN1C(=O)CNC(=O)c1ccc2c(c1)nc(CN1CCC(c3cccc(OCc4ccc(Cl)cc4F)n3)CC1)n2C[C@@H]1CCO1 [Compound 63]
51 | 0.44 | Cc1cc(C(=O)Nc2ccc3c(c2)nc(C2CC24CCN(c2cccc(OCc5ccc(Cl)cc5F)n2)CC4)n3C[C@@H]2CCO2)cc2[nH]c(=O)[nH]c12 (some centres unmarked) [Compound 249]
52 | 0.32 | Cc1cc(C(=O)Nc2ccc3c(c2)nc(CN2CC=C(c4cccc(OCc5ccc(Cl)cc5F)n4)CC2)n3C[C@@H]2CCO2)cc2c1NC(=O)C21CC1 [Compound 209]
53 | 0.18 | Cc1cc(NC(=O)c2ccc3c(c2)nc(CN2CC=C(c4cccc5c4OC(C)(c4ccc(Cl)cc4F)O5)CC2)n3C[C@@H]2CCO2)cc2c1NC(=O)C21CC1 (some centres unmarked) [Compound 301]
